| SMILES | melting point |
| --- | --- |
| Cc1cc(NS(=O)(=O)c2ccccc2F)cc(C)c1S(=O)(=O)C[N+](=O)[O-] | 175 to 177 °C |
| CS(=O)(=O)C(CC(S(C)(=O)=O)S(C)(=O)=O)S(C)(=O)=O | 278 to 280 °C |
| CC(C)NCC(O)COc1ccccc1-n1cccc1 (configuration not stated) | 80 to 81 °C |
| COc1ccc(-c2cncc(C#N)c2-c2ccc3[nH]ccc3c2)cc1OC | 215 to 217 °C |
| COc1ccc(Cl)cc1C(=O)NCCc1ccc(C(C)CC(=O)O)cc1 (configuration not stated) | 125 to 127 °C |
| CCCCCC/C=C(\C(=O)Nc1ccc(C(=O)O)cc1)c1ccc2c(c1)C(C)(C)CCC2(C)C | 183 to 184 °C |
| CC(C)(C)OC(=O)NC(CC(=O)Nc1n[nH]c(=S)s1)c1ccccc1 (configuration not stated) | 248 to 249 °C |
| CC(=O)NC(=O)c1cn(Cc2ccccc2)nc1OCc1ccc(OCc2nc(-c3ccco3)oc2C)cc1 | 193 to 194 °C |
| O=C1C=CC2=CN=C(Cc3ccccc3)N3CCC(=C23)N1 | 226 to 228 °C |
| COC(F)(F)c1nc2nc(C)c(F)cc2cc1C(=O)C1C(=O)CCCC1=O | 143 to 146 °C |
| CNC(=O)CN1CCc2cc(Nc3ncc(Cl)c(Nc4cc(Cl)ccc4OC)n3)c(OC)cc2CC1 | 127 to 136 °C |
| Cc1cc(C(=O)Nc2cc(Oc3ccc4nc(NC(=O)C5CC5)cn4n3)ccc2F)n(C)n1 | 237 °C |
| COC(=O)c1ccccc1OCC(O)CNC(C)(C)CNC(N)=O (configuration not stated) | 62 °C |
| COc1cccc2cc(CNCCNC(=O)C34CC5CC(CC(C5)C3)C4)oc12 | 105 to 110 °C |
| Fc1ccc(-c2nc(S)nc(-c3ccccn3)n2)cc1 | > 270 °C |
| CC(C)c1ccc(N(C)C(=O)Cn2cnc3[nH]c(=O)n(C)c(=O)c32)cc1 | 271 to 273 °C |
| CC(=O)c1ccccc1CC1CNC(=O)O1 (configuration not stated) | 85 to 86 °C |
| FC(F)(F)COc1ccc(Cc2ccncc2)cc1 | 51 to 53 °C |
| CC(c1ccc(-c2ccccc2)c(F)c1)c1csc(NC(=S)Nc2ccccc2)n1 (configuration not stated) | 176 to 177 °C |
| CCC(=O)c1cc(CC)c(O)cc1O | 74 to 75 °C |
| COc1cc2c(cc1F)OCC21C(=O)N(Cc2ccc(C(F)(F)F)o2)c2ccccc21 (configuration not stated) | 132 to 134 °C |
| Cc1cc(NC(C)(C)C)nc(NC(C)(C)C)c1C#N | 134 to 138 °C |
| c1cnc2ccc(Cn3nnc4ccc(-c5ccc(N6CCOCC6)nc5)nc43)cc2c1 | 183 to 185 °C |
| Cc1noc2nc(-c3ccccc3)cc(O)c12 | 281 to 282 °C |

| SMILES | melting point |
| --- | --- |
| C[C@@H](CSC(F)(F)C(F)F)[C@](O)(Cn1cncn1)c1ccc(Cl)cc1Cl | 61 to 63 °C |
| CCOCc1nc2c(N)nc3cccnc3c2n1CC(C)(C)NC(=O)C(C)C | 154 to 156 °C |
| CSC(=S)Oc1cnc(C)c2c1COC(C)(C)O2 | 88 to 90 °C |
| CNC(=O)ON=C(C(=O)N(C)C)C(C)=NOC | 172 to 173 °C |
| Cc1ccc2c(c1)CNC(=O)CC2 | 174 to 175 °C |
| CN1CCN(c2cc(NC(=O)OC(C)(C)C)c(N)cc2C#Cc2ccccc2)CC1 | 81 to 85 °C |
| CCN(CC)c1ccc(C2(N(c3ccccc3)c3ccc(NC(C)=O)cc3)OC(=O)c3ccccc32)c(C)c1 (configuration not stated) | 169 to 171 °C |
| CN1CCN(c2cccc(CS(=O)(=O)c3ccccc3)c2[N+](=O)[O-])CC1 | 180 to 182 °C |
| CCCNC(=S)N1CCc2[nH]cnc2C1 | 151 °C |
| O=S(=O)(CC(F)(F)F)c1nc2ccccc2[nH]1 | 172 to 174 °C |
| Cn1cc(CC(NC(=O)CCCC(=O)O)C(=O)NCCCCNC(=N)N)c2ccccc21 (configuration not stated) | 291 °C |
| COC(=O)C(=O)CC(C)C1CCC2C3CC=C4CC(OC(C)=O)CCC4(C)C3CCC12C (configuration not stated) | 146 to 147 °C |
| O=C(O)CN1C(=O)C=CC1=O | 110 °C |
| Cc1nc(Cl)c2c(C)cn(-c3c(Cl)cc(Br)cc3Br)c2n1 | 157 to 159 °C |
| COc1cc(Nc2c(C#N)cnc3cc(-c4ccc(Cn5ccnn5)cc4)ccc23)c(Cl)cc1Cl | 239 to 240 °C |
| CNC(=O)N1CC(Oc2ccccc2C(F)(F)F)C1 | 134 to 136 °C |
| Cc1ccc(NC(=O)c2ccc(/C=C/C(=O)NO)cc2)cc1Nc1nc(-c2cccnc2)cs1 | 154 °C |
| Cc1cn(C(C)C(=O)N(C)c2ccccc2)nc1-c1ccccc1 (configuration not stated) | 112 to 114 °C |
| C#CCn1c(=O)n(C2CCN(C(=O)OCC)CC2)c2ccc(Cl)cc21 | 126 °C |
| CC(C)(C)c1ccc(CCC(=O)CC2CCCCC2)cc1NC(=O)CC1c2ccccc2Oc2ccccc21 | 154 to 155 °C |
| CC(C)CCCC(C)CC(=O)Oc1ccc(-c2ccc(OC(=O)CC(C)CCCC(C)C)cc2)cc1 (configuration not stated) | 72 to 73 °C |
| Fc1cc(Cl)ccc1-n1nc2c(c1Br)CCCCC2 | 59 to 60 °C |
| Cc1nc2scc(-c3ccc(F)cc3)n2c(=O)c1CCN1CCC(c2noc3cc(F)ccc23)CC1 | 119 to 122 °C |
| O=c1oc(OCc2ccccc2)nc2ccccc12 | 152 to 154 °C |

| SMILES | melting point |
| --- | --- |
| Cc1cc2c(cc1[N+](=O)[O-])OCO2 | 83 to 84 °C |
| Cc1oc(-c2ccccc2)nc1COc1ccc(Cn2cc(C=O)c(-c3ccccc3)c2)cc1 | 117 to 118 °C |
| O=C(O)Cc1ccc(-n2cc(Cl)cn2)cc1Cl | 152 to 153 °C |
| CCCSC(C(N)=O)c1cc(C)cc(C(=O)c2ccc(F)cc2)c1N (configuration not stated) | 130 to 132 °C |
| CN(C)c1cccc(OC(=O)NC2C(=O)N(CCC3C4CC5CC(C4)CC3C5)c3ccccc3N(c3ccccc3)C2=O)c1 (configuration not stated) | 188 to 189 °C |
| CC(C)OCCCNC(=O)C(C)(C(C)C)C(C)C | 32 °C |
| CCCCCC(=N)NC(=O)Nc1ccc(Cl)cc1 | 175 to 179 °C |
| O=C1c2ccc(N3CCN(c4ccccc4)CC3)nc2CC2CCCCC12 (configuration not stated) | 164 to 166 °C |
| CN(C)CC(=O)Nc1cccc2nc(NC3CCc4cc(F)ccc43)ccc12 (racemic) | 164 °C |
| Cn1cc(-c2ccc3nnc(C(F)(F)c4ccc5ncccc5c4)n3n2)cn1 | 200 °C |
| Nc1ccc(Sc2c(NCC=Cc3ccccc3)cc(C(=O)O)cc2S(N)(=O)=O)cc1 | 228 to 232 °C |
| CC1(C2CCCC2)Cc2cc(OCC(=O)O)c(Cl)c(Cl)c2C1O (configuration not stated) | 129 to 131 °C |
| Nc1ccc(-c2ccncc2)nn1 | 199 to 201 °C |
| N#Cc1cc([N+](=O)[O-])cc(O)c1O | 186 to 188 °C |
| O=C(O)Cc1csc(-c2ccccc2O)n1 | 173 to 174 °C |
| N#Cc1ccc(-c2cc(-c3ccc(C#N)cc3[N+](=O)[O-])on2)cc1 | 280 to 281 °C |
| CN1CC(N(C(=O)c2ccc(Cl)cc2)c2ccccc2)CN1C | 104 to 108 °C |
| COc1cc(C(=O)CCC(=O)c2cc(OCc3ccccc3)c(O)c(S(=O)(=O)CCO)c2)cc(OC)c1OC | 129 to 130 °C |
| CN1C(=O)Cc2ccc(Cl)cc21 | 116 to 117 °C |
| Cc1nccn1-c1nc(-c2ccc(Cl)cc2)c(CCCOc2ccccc2O)o1 | 110 to 111 °C |
| O=C1N(CC(F)(F)F)C(=NCc2ccc(OC(F)(F)F)cc2)SCN1c1ccccc1 | 84 to 87 °C |
| Cc1sc(N2CCOCC2)nc1CCl | 110 to 111 °C |
| COC(=O)c1ccc(-c2cc[nH]n2)cc1Cl | 130 to 131 °C |
| O=c1[nH]c2ncc(-c3ccc(-c4n[nH]c(C(F)(F)F)n4)cc3)nc2n1CC1CCCCC1 | 303 to 305 °C |

Reference: a melting point compilation (Tetko et al.; mined from patent text by program, amines drawn as free bases though some values may be those of a salt)
